Data reported in patent US20240009209A1, “PROTEIN-BOUND CANNABINOID FORMULATIONS AND USES THEREOF” (YISSUM RESEARCH DEVELOPMENT COMPANY OF THE HEBREW …, priority 2020, published 2024).

Assay: Plasma CBD after IV administration
Assay type: in vivo, BALB/C mice
Conditions: mice, IV 12 mg/kg
Procedure: A total of 18 female BALB/C mice aged 12 weeks were injected IV with a single dose of 12 mg/kg CBD formulation in cremophor:ethanol.
At the time-points detailed below, 3 mice were euthanized with CO2 and terminal blood was immediately collected from the retro-orbital sinus in labeled 0.5 ml K3 EDTA blood collection tubes (Mini Collect, Greiner-bio-one, Austria). The blood was centrifuged at 2000×g for 10 minutes before plasma was extracted, collected in labeled tubes and frozen at −20° C. immediately after collection. The samples were then stored at −80° C. pending analysis.
Time-points for the blood collection: 2 min, 1, 4, 8, 24 and 48 h.
CBD was extracted from plasma samples that were spiked with cannabigerol (CBG, 1 mg/ml in methanol, Sigma, Cat. C-141-1 Add lot) used as internal standard (IS) followed by dilution of the plasma five-fold in acetonitrile. After vigorous vortex it was centrifuged, and the upper phase was analyzed. Final IS concentration in the samples was 100 ng/ml.
Plasma extracts were analyzed by LC/MS method (Sciex (Framingham, MA, USA) Triple Quad™ 5500 mass spectrometer coupled with a Shimadzu (Kyoto, Japan) UHPLC System). The concentrations were calculated based on a calibration curve of CBD in plasma at a range of 1-1,000 ng/ml having 100 ng/ml of Internal Standard (IS).

Q: Which results are given for `C=C(C)[C@@H]1CCC(C)=C[C@H]1c1c(O)cc(CCCCC)cc1O` [free CBD, 2-[(1R,6R)-6-Isopropenyl-3-methylcyclohex-2-en1-yl]-5-pentylbenzene-1,3-diol]?
A: Plasma CBD Mean ± SD (24 h): BLOD; Plasma CBD Mean ± SD (24 h, listed as CBD): below the limit of detection; Plasma CBD Mean ± SD (48 h): BLOD; Plasma CBD Mean ± SD (48 h, listed as CBD): below the limit of detection
